Results from patent US10294228B2, “Breathing control modulating compounds, and methods of making and using same” (NEURAD LTD., priority 2015, dated 2019).
Counter-ions that a name gives are not always drawn.

System: anesthetized rats
Experiment: Anesthetized rat spirometry screening assay (ventilatory activity, minute volume)
Assay type: in vivo
Conditions: increase in minute volume (VE); for change in vivo at 0.3 mg/kg: 0.3 mg/kg IV bolus, read-out: VE % Inc @ 0.3 mg/kg IV; for change in vivo at 3 mg/kg: 3.0 mg/kg IV bolus, read-out: VE % Inc @ 3.0 mg/kg IV
Experimental: Anesthetized rats provide a quick method of screening compounds for respiratory and cardiovascular activity.
Rats were initially anesthetized with 3% isoflurane (inhaled) and femoral artery and vein cannulas were surgically inserted. Once cannulated, the rats were transitioned to urethane anesthesia (1.5 g/kg; i.v.) and a tracheal cut-down was performed. After placing the tracheal cannula, it was connected to a pneumotachometer to record respiratory airflow from which respiratory rate (RR), tidal volume (VT), and their product minute volume (MV, also termed VE) were derived. After the surgical preparation was complete, animals were allowed to stabilize for 30 minutes while respiratory rate, tidal volume, minute volume, blood pressure and heart rate were recorded continuously. Arterial blood gases (ABG) were obtained from arterial blood collected from the femoral artery. ABG measurements were taken before and 6 minutes after vehicle and each dose of compound administered. Compounds being screened were administered via bolus injections through the venous cannula followed by a saline flush (total time of administration is approximately 30 seconds), and the animal was monitored for at least 6 minutes for changes in cardiovascular efforts. Compounds were prepared in formulations identified to ensure optimal solubility. As such, vehicle controls were matched for the formulation of each compound tested. Dosing of the compounds being screened was conducted at 0.1 and/or 0.3 mg/kg and/or 3 mg/kg The next dose was not administered until all cardiovascular and respiratory measures had returned to baseline levels. The positive control compounds used were N-[4,6-di-(n-propylamino)-[1,3,5]triazin-2-yl]-N,O-dimethyl-hydroxylamine or N-[2,6-di-(n-propylamino)-[1,3]pyrimidin-4-yl]-N,O-dimethyl-hydroxylamine (both administered at the end of each screening experiment (0.3 mg/kg dose) to validate the experiment and also to serve as a measure with which the compound being screened could be compared.
Data were analyzed by collecting cardiovascular and respiratory data in 30 second averages (BINs). Data were plotted 2 minutes before challenge and then 6 minutes after challenge.

SMILES | change in vivo at 0.3 mg/kg [%] | change in vivo at 3 mg/kg [%]
CCCNc1nc(NC)nc2c(NCC3(O)CCC3)nc(NC)nc12 [Compound 72a, 1-[(2,6-Bis-methylamino-8-propylamino-pyrimido[5,4-d]pyrimidin-4-ylamino)-methyl]-cyclobutanol Hydrochloride] | 132 | 150
CCCNc1nc(NC)nc2c(NC(C)C(C)O)nc(NC)nc12 (stereo not drawn) [Compound 26a, 3-(2,6-Bis-methylamino-8-propylamino-pyrimido[5,4-d]pyrimidin-4-ylamino)-butan-2-ol Hydrochloride] | 39 | 143
CCCNc1nc(NC)nc2c(NC3Cc4ccccc4C3O)nc(NC)nc12 (racemic) [Compound 81, 2-(2,6-Bis-methylamino-8-propylamino-pyrimido[5,4-d]-pyrimidin-4-ylamino)-indan-1-ol] | 50 | 72
CCNc1nc(NCC)c2nc(NC[C@H](C)O)nc(NCC)c2n1 [Compound 165, (S)-1-(4,6,8-Tris-ethylamino-pyrimido[5,4-d]pyrimidin-2-ylamino)-propan-2-ol] | 66 | 101
CNc1nc(NCC(C)(C)O)nc2c(NC)nc(NCC(F)F)nc12 [Compound 107, 1-[6-(2,2-Difluoro-ethylamino)-4,8-bis-methylamino-pyrimido[5,4-d]pyrimidin-2-ylamino]-2-methyl-propan-2-ol] | 14 | 95
CCCNc1nc(NC)nc2c(N3CCC(O)C3)nc(NC)nc12 (stereo not drawn) [Compound 71a, 1-(2,6-Bis-methylamino-8-propylamino-pyrimido[5,4-d]pyrimidin-4-yl)-pyrrolidin-3-ol Hydrochloride] | 17 | 84
CNc1nc(NC[C@@H](C)O)nc2c(NC)nc(NCC3CC3)nc12 [Compound 144, (R)-1-[6-(Cyclopropylmethyl-amino)-4,8-bis-methylamino-pyrimido[5,4-d]pyrimidin-2-ylamino]-propan-2-ol] | 14 | 98
CCNc1nc(NC[C@H](C)O)nc2c(NCC)nc(N)nc12 [Compound 172, (S)-1-(6-Amino-4,8-bis-ethylamino-pyrimido[5,4-d]-pyrimidin-2-ylamino)-propan-2-ol] | 5 | 155
CCCNc1nc(NC)c2nc(NCC(O)C(F)(F)F)nc(NC)c2n1 (stereo not drawn) [Compound 111, 3-(4,8-Bis-methylamino-6-propylamino-pyrimido[5,4-d]pyrimidin-2-ylamino)-1,1,1-trifluoro-propan-2-ol] | 18 | 105
C=C(C)CNc1nc(NCC)c2nc(NC[C@@H](C)O)nc(NCC)c2n1 [Compound 174, (R)-1-[4,8-Bis-ethylamino-6-(2-methyl-allylamino)-pyrimido[5,4-d]-pyrimidin-2-ylamino]-propan-2-ol] | 72 | 114
CCCNc1nc(NC)c2nc(NCC(O)CC)nc(NC)c2n1 (stereo not drawn) [Compound 117, 1-(4,8-Bis-methylamino-6-propylamino-pyrimido[5,4-d]pyrimidin-2-ylamino)-butan-2-ol] | 150 | 162
CCCNc1nc(NC)c2nc(N[C@@H]3c4ccccc4C[C@@H]3O)nc(NC)c2n1 [Compound 123, (1R,2S)-1-(4,8-Bis-methylamino-6-propylamino-pyrimido[5,4-d]-pyrimidin-2-ylamino)-indan-2-ol] | 11 | 129
C=CCNc1nc(NC)c2nc(NC[C@@H](C)O)nc(NC)c2n1 [Compound 145, (R)-1-(6-Allylamino-4,8-bis-methylamino-pyrimido[5,4-d]pyrimidin-2-ylamino)-propan-2-ol] | 47 | 156
CCCNc1nc(NC)nc2c(NCC(O)C(F)(F)F)nc(NC)nc12 (stereo not drawn) [Compound 22a, 3-(2,6-Bis-methylamino-8-propylamino-pyrimido[5,4-d]pyrimidin-4-ylamino)-1,1,1-trifluoro-propan-2-ol Hydrochloride] | 102 | 
CNc1nc(NC)c2nc(NCC(C)(C)O)nc(NC)c2n1 [Compound 149, 2-Methyl-1-(4,6,8-tris-methylamino-pyrimido[5,4-d]pyrimidin-2-ylamino)-propan-2-ol] | 16 | 49
CNc1nc(NCCOC)c2nc(NC)nc(NCCO)c2n1 [Compound 56a, 2-[8-(2-Methoxy-ethylamino)-2,6-bis-methylamino-pyrimido[5,4-d]pyrimidin-4-ylamino]-ethanol Hydrochloride] | 2 | 
CCCNc1nc(NC)nc2c(N[C@H]3CCCC[C@H]3O)nc(NC)nc12 [Compound 82, (1R,2S)-2-(2,6-Bis-methylamino-8-propylamino-pyrimido[5,4-d]pyrimidin-4-ylamino)-cyclohexanol] | 102 | 132
CNc1nc(NCC(C)(C)O)c2nc(NC)nc(NCc3ccccc3)c2n1 [Compound 44a, 1-(8-Benzylamino-2,6-bis-methylamino-pyrimido[5,4-d]pyrimidin-4-ylamino)-2-methyl-propan-2-ol Hydrochloride] | 122 | 132
CCCNc1nc(NC)c2nc(N[C@H]3c4ccccc4C[C@H]3O)nc(NC)c2n1 [Compound 127, (1S,2R)-1-(4,8-Bis-methylamino-6-propylamino-pyrimido[5,4-d]-pyrimidin-2-ylamino)-indan-2-ol] | 81 | 108
CNc1nc(NCC(C)(C)O)c2nc(NC)nc(NC)c2n1 [Compound 48a, 2-Methyl-1-(2,6,8-tris-methylamino-pyrimido[5,4-d]-pyrimidin-4-ylamino)-propan-2-ol Hydrochloride] | 20 | 78
CCCNc1nc(NC)c2nc(NC(C)C(C)O)nc(NC)c2n1 (stereo not drawn) [Compound 119, 3-(4,8-Bis-methylamino-6-propylamino-pyrimido[5,4-d]pyrimidin-2-ylamino)-butan-2-ol] | 10 | 151
CCCNc1nc(NC)c2nc(N(C)CC(C)O)nc(NC)c2n1 (stereo not drawn) [Compound 97, 1-[(4,8-Bis-methylamino-6-propylamino-pyrimido[5,4-d]pyrimidin-2-yl)-methyl-amino]-propan-2-ol] | 49 | 140
CCCNc1nc(NC)nc2c(NC[C@@H](C)O)nc(NC)nc12 [Compound 14a, (R)-1-(2,6-Bis-methylamino-8-propylamino-pyrimido[5,4-d]pyrimidin-4-ylamino)-propan-2-ol Hydrochloride] | 88 | 
CNc1nc(NCC(F)F)c2nc(NC)nc(NCCO)c2n1 [Compound 60a, 2-[8-(2,2-Difluoro-ethylamino)-2,6-bis-methylamino-pyrimido[5,4-d]-pyrimidin-4-ylamino]-ethanol Hydrochloride] | 15 | 119
CCCNc1nc(NC)nc2c(N[C@H]3c4ccccc4C[C@@H]3O)nc(NC)nc12 [Compound 78, (1S,2S)-1-(2,6-Bis-methylamino-8-propylamino-pyrimido[5,4-d]-pyrimidin-4-ylamino)-indan-2-ol] | 173 | 180
CCNc1nc(NC)nc2c(NCCCO)nc(NC)nc12 [Compound 67a, 3-(8-Ethylamino-2,6-bis-methylamino-pyrimido[5,4-d]-pyrimidin-4-ylamino)-propan-1-ol Hydrochloride] | 7 | 136
CCC(O)CNc1nc(NC)c2nc(NCC3CC3)nc(NC)c2n1 (stereo not drawn) [Compound 146, 1-[6-(Cyclopropylmethyl-amino)-4,8-bis-methylamino-pyrimido[5,4-d]pyrimidin-2-ylamino]-butan-2-ol] | 9 | 121
CNc1nc(NCC(C)(C)O)nc2c(NC)nc(NCc3ncccn3)nc12 [Compound 109, 1-{4,8-Bis-methylamino-6-[(pyrimidin-2-ylmethyl)-amino]-pyrimido[5,4-d]pyrimidin-2-ylamino}-2-methyl-propan-2-ol] | 21 | 10
CCCNc1nc(NC)c2nc(N[C@@H]3c4ccccc4C[C@H]3O)nc(NC)c2n1 [Compound 129, (1R,2R)-1-(4,8-Bis-methylamino-6-propylamino-pyrimido[5,4-d]-pyrimidin-2-ylamino)-indan-2-ol] | 2 | 68
C=CCNc1nc(NC)c2nc(N(C)C[C@H](C)O)nc(NC)c2n1 [Compound 156, (S)-1-[(6-Allylamino-4,8-bis-methylamino-pyrimido[5,4-d]pyrimidin-2-yl)-methyl-amino]-propan-2-ol] | 16 | 97
